Assay results taken from the NIST ThermoML archive (doi:10.1016/j.jct.2006.05.008).

Assay: molar heat capacity at constant pressure
Conditions: 101.33 kPa

CCC[n+]1ccn(C)c1.[Br-] [1-methyl-3-propylimidazolium bromide]
Conditions | molar heat capacity at constant pressure [J/K/mol]
244.42 K, Liquid, Small (less than 1 g) adiabatic calorimetry | 265
244.52 K, Crystal, Vacuum adiabatic calorimetry | 198.49
244.94 K, Crystal, Vacuum adiabatic calorimetry | 198.95
245.29 K, Metastable crystal, Small (less than 1 g) adiabatic calorimetry | 199.04
245.35 K, Liquid, Small (less than 1 g) adiabatic calorimetry | 265.6
245.89 K, Crystal, Vacuum adiabatic calorimetry | 199.57
246.52 K, Liquid, Small (less than 1 g) adiabatic calorimetry | 265.56
246.54 K, Liquid, Small (less than 1 g) adiabatic calorimetry | 266.09
247.02 K, Crystal, Vacuum adiabatic calorimetry | 200.86
247.27 K, Crystal, Vacuum adiabatic calorimetry | 200.82
247.37 K, Liquid, Small (less than 1 g) adiabatic calorimetry | 266.15
247.66 K, Metastable crystal, Small (less than 1 g) adiabatic calorimetry | 201.1
248.62 K, Liquid, Small (less than 1 g) adiabatic calorimetry | 266.07
248.65 K, Crystal, Vacuum adiabatic calorimetry | 202.17
248.84 K, Liquid, Small (less than 1 g) adiabatic calorimetry | 267.47
249.1 K, Crystal, Vacuum adiabatic calorimetry | 202.81
249.39 K, Liquid, Small (less than 1 g) adiabatic calorimetry | 266.73
250.02 K, Crystal, Vacuum adiabatic calorimetry | 203.57
250.02 K, Metastable crystal, Small (less than 1 g) adiabatic calorimetry | 203.18
250.73 K, Liquid, Small (less than 1 g) adiabatic calorimetry | 266.58
251.18 K, Crystal, Vacuum adiabatic calorimetry | 204.9
251.4 K, Crystal, Vacuum adiabatic calorimetry | 204.98
251.41 K, Liquid, Small (less than 1 g) adiabatic calorimetry | 267.3
251.54 K, Crystal, Vacuum adiabatic calorimetry | 205.96
252.37 K, Metastable crystal, Small (less than 1 g) adiabatic calorimetry | 205.32
252.77 K, Crystal, Vacuum adiabatic calorimetry | 206.43
252.83 K, Liquid, Small (less than 1 g) adiabatic calorimetry | 267.16
253.26 K, Crystal, Vacuum adiabatic calorimetry | 207.11
253.43 K, Liquid, Small (less than 1 g) adiabatic calorimetry | 267.81
254.71 K, Metastable crystal, Small (less than 1 g) adiabatic calorimetry | 207.8
254.93 K, Liquid, Small (less than 1 g) adiabatic calorimetry | 267.63
255.35 K, Crystal, Vacuum adiabatic calorimetry | 209.48
255.45 K, Liquid, Small (less than 1 g) adiabatic calorimetry | 268.35
257.03 K, Liquid, Small (less than 1 g) adiabatic calorimetry | 268.27
257.05 K, Metastable crystal, Small (less than 1 g) adiabatic calorimetry | 210.12
257.43 K, Crystal, Vacuum adiabatic calorimetry | 211.8
257.47 K, Liquid, Small (less than 1 g) adiabatic calorimetry | 268.84
259.14 K, Liquid, Small (less than 1 g) adiabatic calorimetry | 268.9
259.38 K, Metastable crystal, Small (less than 1 g) adiabatic calorimetry | 212.62
259.49 K, Liquid, Small (less than 1 g) adiabatic calorimetry | 269.39
259.52 K, Crystal, Vacuum adiabatic calorimetry | 214.55
260.55 K, Crystal, Vacuum adiabatic calorimetry | 216.79
261.24 K, Liquid, Small (less than 1 g) adiabatic calorimetry | 269.33
261.52 K, Liquid, Small (less than 1 g) adiabatic calorimetry | 269.97
261.6 K, Crystal, Vacuum adiabatic calorimetry | 217.5
261.65 K, Liquid, Small (less than 1 g) adiabatic calorimetry | 270.17
261.69 K, Metastable crystal, Small (less than 1 g) adiabatic calorimetry | 215.45
263.34 K, Liquid, Small (less than 1 g) adiabatic calorimetry | 269.95
263.54 K, Liquid, Small (less than 1 g) adiabatic calorimetry | 270.5
263.69 K, Crystal, Vacuum adiabatic calorimetry | 220.52
263.7 K, Liquid, Small (less than 1 g) adiabatic calorimetry | 270.42
264 K, Metastable crystal, Small (less than 1 g) adiabatic calorimetry | 218.39
265.44 K, Liquid, Small (less than 1 g) adiabatic calorimetry | 270.58
265.56 K, Liquid, Small (less than 1 g) adiabatic calorimetry | 271.1
265.73 K, Liquid, Small (less than 1 g) adiabatic calorimetry | 270.91
265.77 K, Crystal, Vacuum adiabatic calorimetry | 223.78
266.29 K, Metastable crystal, Small (less than 1 g) adiabatic calorimetry | 221.46
267.55 K, Liquid, Small (less than 1 g) adiabatic calorimetry | 271.24
267.58 K, Liquid, Small (less than 1 g) adiabatic calorimetry | 271.73
267.75 K, Liquid, Small (less than 1 g) adiabatic calorimetry | 271.67
267.85 K, Crystal, Vacuum adiabatic calorimetry | 227.51
268.56 K, Metastable crystal, Small (less than 1 g) adiabatic calorimetry | 224.85
269.36 K, Crystal, Vacuum adiabatic calorimetry | 231.51
269.61 K, Liquid, Small (less than 1 g) adiabatic calorimetry | 272.26
269.67 K, Liquid, Small (less than 1 g) adiabatic calorimetry | 271.61
269.77 K, Liquid, Small (less than 1 g) adiabatic calorimetry | 272.2
269.93 K, Crystal, Vacuum adiabatic calorimetry | 231.49
270.71 K, Metastable crystal, Small (less than 1 g) adiabatic calorimetry | 224.7
270.82 K, Metastable crystal, Small (less than 1 g) adiabatic calorimetry | 229.03
271.87 K, Liquid, Small (less than 1 g) adiabatic calorimetry | 272.35
272 K, Crystal, Vacuum adiabatic calorimetry | 235.92
272.05 K, Liquid, Small (less than 1 g) adiabatic calorimetry | 273.02
273.43 K, Metastable crystal, Small (less than 1 g) adiabatic calorimetry | 235.43
273.97 K, Liquid, Small (less than 1 g) adiabatic calorimetry | 272.86
274.08 K, Crystal, Vacuum adiabatic calorimetry | 241.07
274.59 K, Liquid, Small (less than 1 g) adiabatic calorimetry | 273.93
275.18 K, Metastable crystal, Small (less than 1 g) adiabatic calorimetry | 235.92
276.07 K, Liquid, Small (less than 1 g) adiabatic calorimetry | 273.68
276.15 K, Crystal, Vacuum adiabatic calorimetry | 246.77
276.27 K, Metastable crystal, Small (less than 1 g) adiabatic calorimetry | 241.56
277.13 K, Liquid, Small (less than 1 g) adiabatic calorimetry | 274.62
277.85 K, Crystal, Vacuum adiabatic calorimetry | 253.97
278.17 K, Liquid, Small (less than 1 g) adiabatic calorimetry | 274.27
278.22 K, Crystal, Vacuum adiabatic calorimetry | 253.72
279.07 K, Metastable crystal, Small (less than 1 g) adiabatic calorimetry | 249.25
279.67 K, Liquid, Small (less than 1 g) adiabatic calorimetry | 275.3
280.27 K, Liquid, Small (less than 1 g) adiabatic calorimetry | 274.91
281.68 K, Metastable crystal, Small (less than 1 g) adiabatic calorimetry | 255.47
281.81 K, Metastable crystal, Small (less than 1 g) adiabatic calorimetry | 258.32
282.22 K, Liquid, Small (less than 1 g) adiabatic calorimetry | 276.12
282.37 K, Liquid, Small (less than 1 g) adiabatic calorimetry | 275.55
284.47 K, Liquid, Small (less than 1 g) adiabatic calorimetry | 276.33
284.5 K, Metastable crystal, Small (less than 1 g) adiabatic calorimetry | 269.64
284.76 K, Liquid, Small (less than 1 g) adiabatic calorimetry | 277
286.57 K, Liquid, Small (less than 1 g) adiabatic calorimetry | 276.88
287.11 K, Metastable crystal, Small (less than 1 g) adiabatic calorimetry | 284.18
287.31 K, Liquid, Small (less than 1 g) adiabatic calorimetry | 277.78
287.83 K, Metastable crystal, Small (less than 1 g) adiabatic calorimetry | 291.75
288.67 K, Liquid, Small (less than 1 g) adiabatic calorimetry | 277.6
289.86 K, Liquid, Small (less than 1 g) adiabatic calorimetry | 278.56
290.76 K, Liquid, Small (less than 1 g) adiabatic calorimetry | 278.25
292.42 K, Liquid, Small (less than 1 g) adiabatic calorimetry | 279.52
292.85 K, Liquid, Small (less than 1 g) adiabatic calorimetry | 278.99
294.97 K, Liquid, Small (less than 1 g) adiabatic calorimetry | 280.39
297.52 K, Liquid, Small (less than 1 g) adiabatic calorimetry | 281.17
300.09 K, Liquid, Small (less than 1 g) adiabatic calorimetry | 282.13
302.65 K, Liquid, Small (less than 1 g) adiabatic calorimetry | 282.97
305.21 K, Liquid, Small (less than 1 g) adiabatic calorimetry | 283.79
307.77 K, Liquid, Small (less than 1 g) adiabatic calorimetry | 284.73
310.34 K, Liquid, Small (less than 1 g) adiabatic calorimetry | 285.68
312.44 K, Liquid, Small (less than 1 g) adiabatic calorimetry | 286.13
315.01 K, Liquid, Small (less than 1 g) adiabatic calorimetry | 287.07
317.56 K, Liquid, Small (less than 1 g) adiabatic calorimetry | 287.97
320.1 K, Liquid, Small (less than 1 g) adiabatic calorimetry | 288.9
322.63 K, Liquid, Small (less than 1 g) adiabatic calorimetry | 289.74
325.17 K, Liquid, Small (less than 1 g) adiabatic calorimetry | 290.68
327.71 K, Liquid, Small (less than 1 g) adiabatic calorimetry | 291.56
330.24 K, Liquid, Small (less than 1 g) adiabatic calorimetry | 292.55
332.78 K, Liquid, Small (less than 1 g) adiabatic calorimetry | 293.41
335.3 K, Liquid, Small (less than 1 g) adiabatic calorimetry | 294.48
337.83 K, Liquid, Small (less than 1 g) adiabatic calorimetry | 295.38
340.36 K, Liquid, Small (less than 1 g) adiabatic calorimetry | 295.97
342.88 K, Liquid, Small (less than 1 g) adiabatic calorimetry | 296.86
345.4 K, Liquid, Small (less than 1 g) adiabatic calorimetry | 297.86
347.92 K, Liquid, Small (less than 1 g) adiabatic calorimetry | 298.8
350.44 K, Liquid, Small (less than 1 g) adiabatic calorimetry | 299.62
352.95 K, Liquid, Small (less than 1 g) adiabatic calorimetry | 300.4
355.46 K, Liquid, Small (less than 1 g) adiabatic calorimetry | 301.37
357.97 K, Liquid, Small (less than 1 g) adiabatic calorimetry | 302.27
359.15 K, Liquid, Small (less than 1 g) adiabatic calorimetry | 302.7
360.47 K, Liquid, Small (less than 1 g) adiabatic calorimetry | 303.23
361.69 K, Liquid, Small (less than 1 g) adiabatic calorimetry | 304.73
362.97 K, Liquid, Small (less than 1 g) adiabatic calorimetry | 304.73
364.23 K, Liquid, Small (less than 1 g) adiabatic calorimetry | 305.78
366.73 K, Liquid, Small (less than 1 g) adiabatic calorimetry | 305.51
